Assay results from EPA's ToxRefDB 2.

Columns and labels:
rat [1] = settings: Subchronic dermal toxicity, fischer, Topical, dose end: 13 week, group: systemic
rat [2] = settings: Combined chronic toxicity/carcinogenicity, wistar, Oral, Feed, dose end: 24 month, group: systemic
rat [3] = settings: Multigenerational reproductive toxicity study, sprague dawley, Oral, Feed, dose end: 2 generation
dog [4] = settings: Subchronic oral toxicity in nonrodent, beagle, Feed, dose end: 90 day, group: systemic
rat [5] = settings: Subchronic oral toxicity in rodents, wistar, Feed, dose end: 90 day, group: systemic
dog [6] = settings: Chronic toxicity; beagle; Oral; Feed; dose end: 52 week; group: systemic; systemic / hematology / erythrocyte (rbc) count differential / erythrocyte (rbc) + systemic / hematology / heinz body / heinz body + …
mouse [7] = settings: Subchronic oral toxicity in rodents, b6c3f1, Feed, dose end: 14 week, group: systemic, systemic / clinical chemistry / bilirubin / total bilirubin + systemic / clinical chemistry / cholesterol / cholesterol + systemic / …
mouse [8] = settings: Carcinogenicity; b6c3f1; Oral; Feed; dose end: 2 year; group: systemic; systemic / organ weight / kidney / nos + systemic / pathology microscopic / kidney / vacuolization + systemic / organ weight / kidney / …
rabbit = settings: Prenatal developmental toxicity study, other, Oral, Gavage/Intubation, dose end: 18 GD
mouse [9] = settings: Carcinogenicity, cd1, Oral, Feed, dose end: 80 week, group: systemic
rat [10] = settings: Multigenerational reproductive toxicity study, sprague dawley, Oral, Feed, dose end: 2 generation; remark: listed apart in the source
rat [11] = settings: Prenatal developmental toxicity study; wistar; Oral; Feed; dose end: 15 GD; group: maternal; systemic / in life observation / body weight / body weight gain + systemic / in life observation / food consumption / food consumption
mouse [12] = settings: Subchronic oral toxicity in rodents, b6c3f1, Feed, dose end: 13 week, group: systemic
rat [13] = settings: Prenatal developmental toxicity study, sprague dawley, Oral, Gavage/Intubation, dose end: 15 GD
rat [14] = settings: Combined chronic toxicity/carcinogenicity; fischer; Oral; Feed; dose end: 104 week; group: systemic; systemic / organ weight / skeletal muscle / absolute + systemic / organ weight / skeletal muscle / relative to body weight + systemic / …
rat [15] = settings: Combined chronic toxicity/carcinogenicity; sprague dawley; Oral; Feed; dose end: 104 week; group: systemic; systemic / pathology microscopic / adrenal gland / hypertrophy + systemic / pathology microscopic / skeletal muscle / malformation + …
rat [16] = settings: Prenatal developmental toxicity study, sprague dawley, Oral, Gavage/Intubation, dose end: 15 GD; remark: listed apart in the source
dog [17] = settings: Chronic toxicity, beagle, Oral, [Not Specified], dose end: 52 week, group: systemic
rat [18] = settings: Subchronic oral toxicity in rodents, sprague dawley, Feed, dose end: 13 week, group: systemic, systemic / in life observation / body weight / body weight + systemic / in life observation / body weight / body weight gain + systemic / in…
rat [19] = settings: Combined chronic toxicity/carcinogenicity, fischer, Oral, Feed, dose end: 2 year, group: systemic
rat [20] = settings: Subchronic oral toxicity in rodents, fischer, Feed, dose end: 13 week, group: systemic
mouse [21] = settings: Combined chronic toxicity/carcinogenicity; b6c3f1; Oral; Feed; dose end: 2 year; group: systemic; systemic / in life observation / body weight / body weight
rat [22] = settings: Prenatal developmental toxicity study, sprague dawley, Oral, Gavage/Intubation, dose end: 5 GD, group: developmental
[23] = systemic / pathology microscopic / skin / inflammation
[24] = systemic / pathology microscopic / skin / inflammation + systemic / in life observation / clinical signs / desquamation + systemic / in life…
[25] = systemic / clinical chemistry / lactic acid dehydrogenase (ldh) / lactic acid dehydrogenase (ldh)
[26] = group: offspring, systemic / in life observation / body weight / offspring (pup) weight
[27] = group: offspring, systemic / in life observation / body weight / offspring (pup) weight + developmental / offspring survival late / [other] / [other]
[28] = group: parental, systemic / clinical chemistry / alkaline phosphatase (alp/alk) / alkaline phosphatase (alp/alk) + systemic / clinical chemistry / creatinine…
[29] = systemic / hematology / heinz body / heinz body
[30] = systemic / hematology / heinz body / heinz body + systemic / clinical chemistry / alkaline phosphatase (alp/alk) / alkaline phosphatase (alp…
[31] = systemic / clinical chemistry / alanine aminotransferase (alt/sgpt) / alanine aminotransferase (alt/sgpt) + systemic / in life observation…
[32] = systemic / organ weight / liver / absolute + systemic / organ weight / liver / relative to body weight
[33] = group: developmental, developmental / developmental malformation / bone / unossified + systemic / in life observation / body weight / fetal weight
[34] = group: maternal, systemic / in life observation / body weight / body weight gain + systemic / in life observation / clinical signs / scybala + systemic / in …
[35] = systemic / in life observation / body weight / body weight + systemic / pathology microscopic / liver / hypertrophy
[36] = systemic / in life observation / body weight / body weight gain + systemic / organ weight / brain / absolute + systemic / pathology …
[37] = group: parental, systemic / in life observation / body weight / body weight + systemic / in life observation / body weight / body weight gain + systemic / in…
[38] = systemic / in life observation / body weight / body weight gain
[39] = systemic / in life observation / body weight / body weight gain + systemic / in life observation / mortality / mortality + systemic / in …
[40] = group: developmental, developmental / developmental malformation / bone / ossification sites + developmental / developmental malformation / general / [other] + …
[41] = group: maternal, systemic / in life observation / body weight / body weight gain
[42] = group: maternal, systemic / in life observation / body weight / body weight gain + reproductive / reproductive performance / postimplantation loss / …
[43] = group: developmental, developmental / developmental malformation / diaphragm / diaphragmatic thinning
[44] = group: developmental, developmental / developmental malformation / diaphragm / diaphragmatic thinning + systemic / in life observation / body weight / fetal …
[45] = group: maternal, systemic / in life observation / body weight / body weight + systemic / in life observation / clinical signs / salivation + systemic / in …
[46] = systemic / clinical chemistry / alanine aminotransferase (alt/sgpt) / alanine aminotransferase (alt/sgpt) + systemic / clinical chemistry / …
[47] = systemic / organ weight / ovary / absolute + systemic / organ weight / uterus / absolute
[48] = systemic / pathology microscopic / eye / retinopathy
[49] = systemic / pathology microscopic / thyroid gland / adenoma/carcinoma combined + systemic / pathology microscopic / thyroid gland / carcinoma…
[50] = developmental / developmental malformation / bone / ossification sites + developmental / developmental malformation / general / [other] + …

CCCCCCCCCCSCCN.Cl [2-(Decylthio)ethanamine hydrochloride]
LOAEL (rat [1]; [23]): 1 mg/kg/day
NOAEL (rat [1]; [23]): < 1 mg/kg/day
LEL (rat [1]; [24]): 1 mg/kg/day
NEL (rat [1]; [24]): < 1 mg/kg/day

CC1(C(=O)Nc2ccc(O)c(Cl)c2Cl)CCCCC1 [Fenhexamid]
LEL (rat [2]; [25]): 28 mg/kg/day
NEL (rat [2]; [25]): < 28 mg/kg/day
NOAEL (rat [2]; systemic / clinical chemistry / lactic acid dehydrogenase (ldh) / lactic acid dehydrogenase (ldh) + systemic / pathology microscopic / …): 28 mg/kg/day
LOAEL (rat [2]; systemic / pathology microscopic / intestine large / hyperplasia + systemic / pathology microscopic / spleen / hematopoietic cell …): 292 mg/kg/day
LEL (rat [3]; [26]): 406 mg/kg/day
LOAEL (rat [3]; [26]): 406 mg/kg/day
NEL (rat [3]; [27]): 38.2 mg/kg/day
NOAEL (rat [3]; [27]): 38.2 mg/kg/day
LEL (rat [3]; [28]): 406 mg/kg/day
LOAEL (rat [3]; [28]): 406 mg/kg/day
NEL (rat [3]; [28]): 38.2 mg/kg/day
NOAEL (rat [3]; [28]): 38.2 mg/kg/day
LEL (dog [4]; [29]): 239 mg/kg/day
LOAEL (dog [4]; [29]): 239 mg/kg/day
NEL (dog [4]; [30]): 33.9 mg/kg/day
NOAEL (dog [4]; [30]): 33.9 mg/kg/day
LOAEL (rat [5]; [31]): 904 mg/kg/day
NOAEL (rat [5]; [31]): 415 mg/kg/day
LEL (rat [5]; [32]): 202 mg/kg/day
NEL (rat [5]; [32]): < 202 mg/kg/day
LEL (dog [6]): 124 mg/kg/day
LOAEL (dog [6]): 124 mg/kg/day
NEL (dog [6]): 17.4 mg/kg/day
NOAEL (dog [6]): 17.4 mg/kg/day
LEL (mouse [7]): 3280 mg/kg/day
LOAEL (mouse [7]): 3280 mg/kg/day
NEL (mouse [7]): 266 mg/kg/day
NOAEL (mouse [7]): 266 mg/kg/day
LEL (mouse [8]): 807 mg/kg/day
LOAEL (mouse [8]): 807 mg/kg/day
NEL (mouse [8]): 247 mg/kg/day
NOAEL (mouse [8]): 247 mg/kg/day
LEL (rabbit; [33]): 1000 mg/kg/day
LOAEL (rabbit; [33]): 1000 mg/kg/day
NEL (rabbit; [33]): 300 mg/kg/day
NOAEL (rabbit; [33]): 300 mg/kg/day
LEL (rabbit; [34]): 300 mg/kg/day
LOAEL (rabbit; [34]): 300 mg/kg/day
NEL (rabbit; [34]): 100 mg/kg/day
NOAEL (rabbit; [34]): 100 mg/kg/day

CN(C)C(=S)[S-].CN(C)C(=S)[S-].[Zn+2] [Ziram]
LEL (mouse [9]; [35]): 3 mg/kg/day
NEL (mouse [9]; [35]): < 3 mg/kg/day
LOAEL (mouse [9]; [36]): 27 mg/kg/day
NOAEL (mouse [9]; [36]): 9 mg/kg/day
LEL (rat [10]; [26]): 42.7 mg/kg/day
LOAEL (rat [10]; [26]): 42.7 mg/kg/day
NEL (rat [10]; [26]): 16.7 mg/kg/day
NOAEL (rat [10]; [26]): 16.7 mg/kg/day
LEL (rat [10]; [37]): 37.5 mg/kg/day
LOAEL (rat [10]; [37]): 37.5 mg/kg/day
NEL (rat [10]; [37]): 14.8 mg/kg/day
NOAEL (rat [10]; [37]): 14.8 mg/kg/day
LEL (rat [11]): 12.5 mg/kg/day
LOAEL (rat [11]): > 25 mg/kg/day
NEL (rat [11]): 6.25 mg/kg/day
NOAEL (rat [11]): ≥ 25 mg/kg/day
LEL (mouse [12]; [38]): 80 mg/kg/day
NEL (mouse [12]; [38]): < 80 mg/kg/day
LOAEL (mouse [12]; [39]): > 1590 mg/kg/day
NOAEL (mouse [12]; [39]): ≥ 1590 mg/kg/day
LOAEL (rat [13]; [40]): > 100 mg/kg/day
NEL (rat [13]; [40]): 12.5 mg/kg/day
NOAEL (rat [13]; [40]): ≥ 100 mg/kg/day
LEL (rat [13]; group: developmental, systemic / in life observation / body weight / fetal weight): 25 mg/kg/day
LEL (rat [13]; [41]): 12.5 mg/kg/day
NEL (rat [13]; [41]): < 12.5 mg/kg/day
LOAEL (rat [13]; [42]): > 100 mg/kg/day
NOAEL (rat [13]; [42]): ≥ 100 mg/kg/day
LEL (rat [14]): 6.9 mg/kg/day
LOAEL (rat [14]): 6.9 mg/kg/day
NEL (rat [14]): 0.7 mg/kg/day
NOAEL (rat [14]): 0.7 mg/kg/day
LEL (rat [15]): 2.5 mg/kg/day
LOAEL (rat [15]): 2.5 mg/kg/day
NEL (rat [15]): < 2.5 mg/kg/day
NOAEL (rat [15]): < 2.5 mg/kg/day
LEL (rat [16]; [43]): 16 mg/kg/day
LOAEL (rat [16]; [43]): 16 mg/kg/day
NEL (rat [16]; [44]): 4 mg/kg/day
NOAEL (rat [16]; [44]): 4 mg/kg/day
LEL (rat [16]; [45]): 16 mg/kg/day
LOAEL (rat [16]; [45]): 16 mg/kg/day
NEL (rat [16]; [45]): 4 mg/kg/day
NOAEL (rat [16]; [45]): 4 mg/kg/day
LOAEL (dog [17]; [46]): 6.6 mg/kg/day
NOAEL (dog [17]; [46]): 1.6 mg/kg/day
LEL (dog [17]; [47]): 1.9 mg/kg/day
NEL (dog [17]; [47]): < 1.9 mg/kg/day
LEL (rat [18]): 21.4 mg/kg/day
LOAEL (rat [18]): 21.4 mg/kg/day
NEL (rat [18]): 7.4 mg/kg/day
NOAEL (rat [18]): 7.4 mg/kg/day
LEL (rat [19]; [48]): 13 mg/kg/day
NEL (rat [19]; [48]): < 13 mg/kg/day
LOAEL (rat [19]; [49]): > 22 mg/kg/day
NOAEL (rat [19]; [49]): ≥ 22 mg/kg/day
LEL (rat [20]; [38]): 31.3 mg/kg/day
LOAEL (rat [20]; [39]): > 313 mg/kg/day
NEL (rat [20]; [39]): 16.3 mg/kg/day
NOAEL (rat [20]; [39]): ≥ 313 mg/kg/day
LEL (mouse [21]): 122 mg/kg/day
LOAEL (mouse [21]): 122 mg/kg/day
NEL (mouse [21]): < 122 mg/kg/day
NOAEL (mouse [21]): < 122 mg/kg/day
LOAEL (rat [22]; [50]): > 100 mg/kg/day
NEL (rat [22]; [50]): 25 mg/kg/day
NOAEL (rat [22]; [50]): ≥ 100 mg/kg/day
LEL (rat [22]; systemic / in life observation / body weight / fetal weight): 50 mg/kg/day
